A melting point compilation (Tetko et al.; mined from patent text by program, amines drawn as free bases though some values may be those of a salt)

Structure (SMILES) | melting point [°C]
COC(=O)C=C(Nc1cc(CCCl)c([N+](=O)[O-])cc1OCc1ccccc1)C(F)(F)F | 105 to 110
c1ccc2c(CC3CCCCC3)c[nH]c2c1 | 71 to 73
C#CCN(C(CCn1c(=O)[nH]c2ccccc2c1=O)C(=O)O)S(=O)(=O)c1ccc(Oc2ccccc2)cc1 (stereo not given) | 194 to 195
COc1ccc(C(=O)c2cccc3c2ccn3S(=O)(=O)c2ccc(C)cc2)cc1 | 135
CC(=O)OCC1OC(OC2C(COC(C)=O)OC(OCCBr)C(OC(C)=O)C2OC(C)=O)C(OC(C)=O)C(OC(C)=O)C1OC(C)=O (stereo not given) | 151 to 152
CC1Cc2c(-c3ccccc3)[nH]c(-c3ccccc3)c2CC1C (stereo not given) | 133
CCCCCCCCCCCCCCOC(=O)c1cc(Cl)c(N2N=C(Nc3cc(N4CCCC4=O)ccc3Cl)CC2=O)c(Cl)c1 | 143 to 146
Nc1cc(F)cc(F)c1NC(=S)Nc1c(Cl)cccc1Cl | 310 to 314
CCCOc1c(OC)cc(C(=O)CCC(=O)c2cc(OC)c(OC)c(OC)c2)cc1SC | 113 to 114
Cc1cc(C(C)(C)C)c(O)c(C)c1COC(=O)c1cccc(C(=O)OCc2c(C)cc(C(C)(C)C)c(O)c2C)c1 | 155 to 156
COc1ccc2c3c1OC1C(=O)CC(C)C4C(C2)N(C#N)CCC314 (stereo not given) | 237 to 241
O=C1OCCN1c1ccc2cc[nH]c2c1 | 199
CCCCCCCCOc1ccc(C(=O)NN)cc1 | 90
CC(=O)Nc1ccc2c(c1)S(=O)(=O)N=C(NC(C)C)N2 | 260 to 262
COc1ccc(C2=NN(CCCCCCCCBr)C(=O)[C@H]3CCCC[C@@H]23)cc1OC (relative stereo) | 58 to 60
COc1cc(C(=O)c2csc(-c3ccc(N)cc3)n2)cc(OC)c1OC | 166 to 169
CC(C)c1nc(CO)n(Cc2cccnc2)c1Sc1cc(Cl)cc(Cl)c1 | 136 to 139
CCCCCCCCCCCCCCCCCCOCCOCCO | 45 to 46
COc1cncnc1-c1ssc(=S)c1C | 136
CNC(=O)c1nn(-c2ccccc2)c(O)c1N=Nc1ccc(S(=O)(=O)NCCCCCCBr)cc1 | 234 to 236
O=C1OC(COc2ccc(CO)cc2)CN1c1ccc(Cl)cc1 (stereo not given) | 149 to 150
Clc1ccc(-c2[nH]nc(N3CCN(C4CC4)CC3)c2-c2ccncc2)cc1 | 264 to 265
COc1cc2c(cc1OC)CCCC(C(=O)N1CCNCC1)=C2 | 137 to 138
CCOC(=O)c1csc(N2N=C(c3ccc([N+](=O)[O-])cc3)c3cc4c(cc3CC2C)OCO4)n1 (stereo not given) | 242 to 243
O=C(CCc1cccc([N+](=O)[O-])c1)Nc1ccc(Nc2ccccc2)cc1 | 130 to 132

Structure (SMILES) | melting point [°C]
CCOC(=O)COc1cc(OCc2ccccc2)ccc1C#N | 84
CC(C)(COc1ccccc1C1NC(C(=O)O)CS1)CO[N+](=O)[O-] (stereo not given) | 105 to 108
CCCCCCCCCC(CCCCCCCCC)N1C(=O)c2ccc3c4cccc5cccc(c6ccc(c2c36)C1=O)c54 | 143 to 144
CC(C)(CNC(=O)CN1CCCC1=O)N1CCCCC1 | 69
COc1ccc(S(=O)(=O)Nc2ccccc2O)cc1 | 89
CCCCC(=O)N[C@H]1CC[C@H](CCN2CCC(c3cccc4c3CCO4)CC2)CC1 | 186
COc1ccc(CNC(SC)=C(C#N)C#N)cc1 | 100 to 101
OCC1=NOC(c2ccccc2)C1 (stereo not given) | 73 to 74
CC(C)Oc1ccc2c(c1)OCC1c3ccccc3OC21 (stereo not given) | 100 to 102
CC(C)(C#N)c1cc(C(O)c2cccnc2)cc(C(C)(C)C#N)c1 (stereo not given) | 117 to 120
C[C@H](CN1CC=C(c2cccs2)CC1)Nc1ccccn1 | 63 to 68
CCn1c2c(c3ccccc31)C=CN(C(=O)OC)C=C2C(=O)OC | 129
Cc1nc(-c2ccc(CCN3CCN(c4cccc(C(F)(F)F)c4)CC3)cc2)cs1 | 170 to 175
CS(=O)CCN1C(=O)CN=C(c2ccccc2)c2cc(Cl)ccc21 (stereo not given) | 166 to 167
CCN1CCN(c2cccc3c2C[C@H](NC(C)=O)CC3)CC1 | 142 to 143
COC1(c2ccc(OC(C)=O)cc2)Sc2ccccc2N(C)C1=O (stereo not given) | 144 to 146
CC(=O)N1c2ccccc2-c2c([N+](=O)[O-])cnn2C1C (stereo not given) | 149 to 150
O=[N+]([O-])c1ccc2c(c1)S(=O)(=O)c1ccccc1-2 | 259
Cc1ccc(NC(=O)c2cc([N+](=O)[O-])ccc2NC(=O)CF)c(C)c1 | 227 to 229
COc1ccc(C2=CCN(Cc3n[nH]c4ccccc34)CC2)cc1 | 157 to 159
COC(=O)c1ccc2[nH]c(/C=C/c3ccc(OC)c(OC)c3)nc2c1 | 185 to 188
Cc1cc(Oc2ncc(C(F)(F)F)cc2Cl)nn1C(=O)Nc1cccc(Cl)c1 | 129 to 130
CCOC(=O)C(=Cc1ccc(F)cc1)C(C)=O | 80 to 82
CC(CCC(=O)NO)NC(=O)C(=O)c1cn2c3c(cccc13)CCC2 (stereo not given) | 135 to 137
O=C1C(Cl)=Cc2c(Cl)cc3c4c(c(Cl)cc1c24)C=C(Cl)C3=O | 315 to 320

Structure (SMILES) | melting point [°C]
CC(=NOCCOc1ccc(CC2OC(=O)NC2=O)cc1)c1ccc(-c2ccccc2)cc1 (stereo not given) | 177 to 179
CCc1nc2c(N)nc(C)c(C)c2n1CCCC(=O)N1CCOCC1 | 209 to 210
COCCN1C(=S)N(c2ccc(C#N)c(C(F)(F)F)c2)C(=O)C1(C)C | 98 to 99
CCCCOC(=O)Cc1ccc(N2CCN(CCc3cc(C(C)(C)C)c(O)c(C(C)(C)C)c3)CC2)cc1 | 103 to 105
Cc1cc(-n2cnn(CCC3CC3)c2=O)sc1C(=O)NCc1cccnc1 | 148 to 150
CCn1nc(-c2ccccc2)c(C(C)=O)c([N+](=O)[O-])c1=O | 226 to 227
CCCC(C(C)=CC(CNC(=O)Cc1cccnc1)=NO)[N+](=O)[O-] (stereo not given) | 128 to 129
O=C1CCC(N2Cc3cc(CNC(=O)Nc4ccc(Cl)c(Cl)c4)ccc3C2=O)C(=O)N1 (stereo not given) | 238 to 240
O=C(Nc1cc(Cl)c(N2CCNCC2)c(Cl)c1)c1ccc(F)c(OCc2cccnc2)c1 | 81 to 85
CCOC(=O)/C=C/c1ccc(OCCCOC)cc1Oc1ncc(C(F)(F)F)cc1Cl | 86.4 to 86.5
CC(C)(C)c1ccc(C(=O)N[C@H]2CC[C@H](CCN3CCC(c4cccc5c4CCO5)CC3)CC2)cc1 | 208
Nc1c(F)c(F)nc(F)c1Cl | 118 to 120
OC[C@@H](O)[C@@H](O)[C@H](O)[C@H](O)CCl | 125 to 127
CCN(CC)CCOC(=O)c1cnc2ccn(-c3cccc(Cl)c3)n2c1=O | 153 to 154
O=Cc1cccc(OCc2ccc3ccccc3n2)c1 | 48 to 53
Cc1cc(OCc2ccccc2)cc(OCCCC(C)C)c1C(=O)O | 83 to 85
Cc1nc(NC(=O)c2ccccc2)sc1C(=O)NCc1ccccc1F | 180 to 183
O=C1NC(=O)C(Cc2ccc(OCCON=Cc3cccnc3)cc2)S1 (stereo not given) | 155 to 157
Cc1nc(C(O)CNC(C)(C)C)ccc1OCc1ccccc1 (stereo not given) | 96 to 97
CC1c2ccccc2-c2ccc(F)cc2N1C(=O)c1ccc(O)cc1 (stereo not given) | 134 to 135
Cc1ccccc1Cc1nc[nH]c1C | 138 to 140
Cc1cc(C)c(Nc2nc(C)ncc2S(=O)(=O)c2ccc(O)cc2)c(C)c1 | 246 to 248
O=C(Oc1ccc(-c2ccc(OC(=O)c3cc(O)c(Br)c(O)c3)cc2)cc1)c1ccc(O)c(O)c1 | 252 to 254
CCOC(=O)c1cnn(-c2ccc(Cl)cc2Cl)c1C(F)(F)F | 81 to 83
Cc1c(C)c2c(c(C)c1N)CC(C)(C)O2 | 110

Structure (SMILES) | melting point [°C]
Cc1ccc(Cl)c(C(N)=O)c1N | 149 to 152
CCOc1cc(N)c(Cl)cc1C(=O)NCC1CN(Cc2ccccc2)CCCO1 (stereo not given) | 180 to 183
CCOC(=O)c1cn2c3c(cc(CN4CCOCC4)cc3c1=O)OC(F)(F)C2 | 176 to 177
O=C1CCCN1c1cccc(-n2cnc3cc(Br)cnc32)c1 | 194 to 195
O=C1OC(=Cc2ccc(Cl)c([N+](=O)[O-])c2)c2ccccc21 | 198 to 204
CC(CCC(O)C(C)(C)O)C1CCC2C3=CC=C4CC(O)CCC4(C)C3CCC21C (stereo not given) | 216 to 218
COc1ccc(CCOc2ccc(NC(=O)c3cc(F)cc(N4CCCCC4)c3)c3ccccc23)cc1OC | 158 to 160
NC(=O)c1nc(-c2cccc(N)c2)cs1 | 193 to 194
O=Cc1ccc(OCC2CN(Cc3ccccc3)c3ccccc3O2)cc1 (stereo not given) | 92 to 94
CN(N)C(=S)Nc1ccc(F)cc1 | 148 to 150
Cc1cc(C)cc(Oc2c(CCCc3ccccc3)c(C)[nH]c(=O)c2I)c1 | 220
COC(=O)c1cccc(-n2cncn2)c1 | 115 to 120
CCOC(=O)CC(=O)c1cc(F)c(S(=O)CC)nc1Nc1ccc(F)cc1F (stereo not given) | 115 to 116
COc1cc(C)cc2nc(S(=O)(=O)Nc3cc(C)cnc3F)nn12 | 262 to 264
O=C(O)C(Cc1ccccc1)C(=O)NC(CS)Cc1ccccc1 (stereo not given) | 65 to 70
COc1ccc(Cl)c(NC(=O)N(C)c2cc(Nc3ccc(N4CCN(C)CC4)cc3)ncn2)c1Cl | 162 to 163
CCC(=O)NCC1CC1c1cccc2nc(C)sc12 (stereo not given) | 59 to 61
COc1cc(C)c2c(c1OCC(=O)O)CC(C)(c1ccccc1)C2 (stereo not given) | 151 to 152
CC(=O)OCC(=O)C12OCOC1CC1C3CCC4=CC(=O)CCC4(C)C3(F)C(O)CC12C (stereo not given) | 264 to 266
O=S(CCO)Cc1cccnc1 (stereo not given) | 84 to 86
Cc1nc(-n2ccc(OCc3ccc(F)cc3)cc2=O)sc1C(=O)NCc1ccccc1 | 243 to 245
Nc1cc(F)c(N2CCOCC2)cc1Cl | 89.5
CC(=O)c1ccccc1NC(C)c1c(Cl)cccc1Cl (stereo not given) | 123
O=C1NC(=O)C(Cc2ccc(C(=O)CCCc3ccccc3)cc2)S1 (stereo not given) | 120 to 122
CN(C)CCCc1ccc2c(c1)CCCN2C(=O)c1ccc(-c2ccccc2)cc1 | 100 to 101
